The record followed here is patent US20200148646A1, “6-S[…] 7-S[…] ANALOGS AND THE USE THEREOF” (Purdue Pharma, L.P., priority 2013, published 2020).

For one assay, the target named is μ-opioid receptor (Homo sapiens, UniProt P35372). Briefly: μ-opioid receptor [35S]GTPγS functional assay, U-2 OS cells. The assay is classed as biochemical. More on the design: host or cells: U-2 OS cells. Particulars: for Emax: U2-OS cells, relative to DAMGO. The protocol:
[^35S]GTPγS functional assays were conducted using freshly thawed μ-receptor membranes prepared in-house from a cell line expressing recombinant opioid receptor in a HEK-293, CHO or U-2 OS cell background, or purchased from a commercial source (Perkin Elmer, Shelton, Conn.; or DiscovRx, Fremont, Calif.). Assay reactions were prepared by sequentially adding the following reagents to binding buffer (100 mM NaCl, 10 mM MgCl2, 20 mM HEPES, pH 7.4) on ice (final concentrations indicated): membrane protein (0.026 mg/mL), saponin ([…]), GDP ([…]) and [^35S]GTPγS (0.20 nM; Perkin Elmer, Shelton, Conn.). The prepared membrane solution (190 l/well) was transferred to 96-shallow well polypropylene plates containing 10 μl of 20× concentrated stock solutions of the agonist [D-Ala^2, N-methyl-Phe^4 Gly-ol^5]-enkephalin (DAMGO) prepared in dimethyl sulfoxide (DMSO). Plates were incubated for 30 min at about 25° C. with shaking. Reactions were terminated by rapid filtration onto 96-well Unifilter GF/B filter plates (Perkin Elmer, Shelton, Conn.) using a 96-well tissue harvester (Perkin Elmer, Shelton, Conn.) followed by three filtration washes with 200 μl of ice-cold wash buffer (10 mM NaH2PO4, 10 mM Na2HPO4, pH 7.4). Filter plates were subsequently dried at 50° C. for 2-3 hr. BetaScint scintillation cocktail (Perkin Elmer, Shelton, Conn.) was added (50 μl/well) and plates were counted using a Packard Top-Count for 1 min/well. Data were analyzed using the sigmoidal dose-response curve fitting functions in GraphPad PRISM v. 3.0, or an in-house function for non-linear, sigmoidal dose-response curve-fitting.
μ GTP EC50 is the concentration of a compound providing 50% of the maximal response for the compound at a μ-opioid receptor.
μ GTP Emax (%) is the maximal effect elicited by a compound relative to the effect elicited by DAMGO, a standard agonist. Generally, the μ GTP Emax (%) value measures the efficacy of a compound to treat or prevent pain or other Conditions.
(§1) In TABLE 2A, activity response of certain Compounds of the Invention at the μ- and κ-opioid receptors using U-2 OS cells was determined as described above for functional assays.
On the technique in general: GTPγS is a poorly hydrolysed GTP analogue; its binding reports G protein activation.

A further assay has as its target human κ opioid receptor (Homo sapiens, UniProt P41145). In words: κ-opioid receptor [35S]GTPγS functional assay, U-2 OS cells. Particulars: for Emax: U2-OS cells, relative to U69,593. The format is biochemical. More on the design: expressed in transfected cells; host or cells: U-2 OS cells (in-house membranes). The protocol:
Membranes from recombinant HEK-293 cells, CHO or U-2 OS cells expressing the recombinant human K opioid receptor (K) were prepared by lysing cells in ice cold hypotonic buffer (2.5 mM MgCl2, 50 mM HEPES, pH 7.4) (10 mL/10 cm dish) followed by homogenization with a tissue grinder/Teflon pestle. Functional [^35S]GTPγS binding assays were conducted as follows. K opioid receptor membrane solution was prepared by sequentially adding final concentrations of 0.026 μg/μl κ membrane protein (in-house), 10 μg/mL saponin, 3 μM GDP and 0.20 nM [^35S]GTPγS to binding buffer (100 mM NaCl, 10 mM MgCl2, 20 mM HEPES, pH 7.4) on ice. The prepared membrane solution (190 μl/well) was transferred to 96-shallow well polypropylene plates containing 10 μl of 20× concentrated stock solutions of agonist prepared in DMSO. Plates were incubated for 30 min at a temperature of about 25° C. with shaking. Reactions were terminated by rapid filtration onto 96-well Unifilter GF/B filter plates (Perkin Elmer, Shelton, Conn.) using a 96-well tissue harvester (Packard) and followed by three filtration washes with 200 μl ice-cold binding buffer (10 mM NaH2PO4, 10 mM Na2HPO4, pH 7.4). Filter plates were subsequently dried at 50° C. for 2-3 hours. Fifty μl/well scintillation cocktail (Perkin Elmer, Shelton, Conn.) was added and plates were counted in a Packard Top-Count for 1 min/well.
κ GTP EC50 is the concentration of a compound providing 50% of the maximal response for the compound at a κ receptor.
κ GTP Emax (%) is the maximal effect elicited by a compound relative to the effect elicited by U69,593.
as §1

Some results are limits rather than exact numbers.

human κ opioid receptor, sequence (P41145 whole entry): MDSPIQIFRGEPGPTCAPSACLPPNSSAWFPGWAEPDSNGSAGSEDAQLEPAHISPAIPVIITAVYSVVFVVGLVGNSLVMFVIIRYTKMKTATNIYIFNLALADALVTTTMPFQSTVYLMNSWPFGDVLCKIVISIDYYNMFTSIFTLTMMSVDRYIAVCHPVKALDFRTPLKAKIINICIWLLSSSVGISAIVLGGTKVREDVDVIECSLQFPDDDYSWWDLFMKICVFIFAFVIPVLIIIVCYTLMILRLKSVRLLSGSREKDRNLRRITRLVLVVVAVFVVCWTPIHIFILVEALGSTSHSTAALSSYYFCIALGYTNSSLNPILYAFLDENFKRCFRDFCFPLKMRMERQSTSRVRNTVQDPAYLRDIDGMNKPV
μ-opioid receptor, sequence (P35372 whole entry, species assumed): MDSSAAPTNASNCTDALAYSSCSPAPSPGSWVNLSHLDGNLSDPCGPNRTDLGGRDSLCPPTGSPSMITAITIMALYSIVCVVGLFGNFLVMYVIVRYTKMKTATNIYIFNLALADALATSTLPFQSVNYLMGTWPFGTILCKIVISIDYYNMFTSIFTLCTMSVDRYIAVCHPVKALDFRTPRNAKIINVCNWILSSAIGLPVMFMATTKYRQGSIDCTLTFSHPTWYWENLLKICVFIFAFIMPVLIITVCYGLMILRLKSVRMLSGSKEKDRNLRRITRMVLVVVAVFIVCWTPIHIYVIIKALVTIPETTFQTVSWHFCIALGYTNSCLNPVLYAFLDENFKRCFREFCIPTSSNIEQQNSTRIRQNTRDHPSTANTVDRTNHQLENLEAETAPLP

What is called EC50 is the concentration giving half of the maximal effect. Read a high EC50 as a less potent agent. Usually Emax stands for the maximal effect, on the per cent scale that the assay sets. As to `Oc1ccc2c(c1)[C@]13CCN(CC4CC4)[C@H](C2)[C@]1(O)C[C@@H](NCc1ccccc1)[C@H](O)C3` [Compound 37, (4bR,6R,7R,8aS,9R)-7-(benzylamino)-11-(cyclopropylmethyl)-5,6,7,8,9,10-hexahydro-8aH-9,4b-(epiminoethano)phenanthrene-3,6,8a-triol], at μ-opioid receptor, the midpoint of the response, the EC50, lay at 3.35 ± 0.41 nM and the Emax worked out at 24.3 ± 0.88%. Moreover, at human κ opioid receptor, a half-maximal effect (EC50) was put at 0.5 ± 0.039 nM and the Emax amounted to 87.7 ± 2.19%.
On μ-opioid receptor, `Oc1ccc2c(c1)[C@]13CCN(CC4CC4)[C@H](C2)[C@]1(O)C[C@@H](NCc1ccccc1)[C@@H](O)C3` [Compound 36, (4bR,6S,7R,8aS,9R)-7-(benzylamino)-11-(cyclopropylmethyl)-5,6,7,8,9,10-hexahydro-8aH-9,4b-(epiminoethano)phenanthrene-3,6,8a-triol] displayed an EC50 of 2.36 ± 0.64 nM and an Emax of 24.3 ± 0.88%. At human κ opioid receptor, this compound returned an EC50 of 0.34 ± 0.033 nM and an Emax of 62 ± 3.06%.
For `Oc1ccc2c(c1)[C@]13CCN(CC4CC4)[C@H](C2)[C@]1(O)C[C@@H](N1CCCC1)[C@@H](O)C3` [Compound 38, (4bR,6S,7R,8aS,9R)-11-(cyclopropylmethyl)-7-(pyrrolidin-1-yl)-5,6,7,8,9,10-hexahydro-8aH-9,4b-(epiminoethano)phenanthrene-3,6,8a-triol] the same measures were 1.27 ± 0.19 nM, 23.3 ± 1.86%, 0.33 ± 0.022 nM and 80 ± 3.79%.
Taken in the same sequence, the figures for `CC[C@H](C)C(=O)N[C@H]1C[C@@]2(O)[C@H]3Cc4ccc(O)cc4[C@@]2(CCN3CC2CC2)C[C@H]1O` [Compound 59, (S)—N-((4bR,6R,7S,8aS,9R)-11-(cyclopropylmethyl)-3,6,8a-trihydroxy-6,7,8,8a,9,10-hexahydro-5H-9,4b-(epiminoethano)phenanthren-7-yl)-2-methylbutanamide] were 45 ± 8.96 nM, 22.3 ± 1.45%, 35.6 ± 4.27 nM and 98.3 ± 3.18%.
For `CCC(C)C[C@H]1C[C@@]2(O)[C@H]3Cc4ccc(O)cc4[C@@]2(CCN3CC2CC2)C[C@H]1O` (stereo partly drawn) [Compound 53, (4bR,6R,7S,8aS,9R)-11-(cyclopropylmethyl)-7-(2-methylbutyl)-5,6,7,8,9,10-hexahydro-8aH-9,4b-(epiminoethano)phenanthrene-3,6,8a-triol] the same measures were over 20000 nM, 3%, 73.8 ± 11.8 nM and 62 ± 1.53%.
Consider `COc1ccc2c(c1)[C@]13CCN(CC4CC4)[C@H](C2)[C@]1(O)C[C@H](NC(=O)C(C)C)C(O)C3` (stereo partly drawn) [Compound 49, N-((4bR,7S,8aS,9R)-11-(cyclopropylmethyl)-6,8a-dihydroxy-3-methoxy-6,7,8,8a,9,10-hexahydro-5H-9,4b-(epiminoethano)phenanthren-7-yl)isobutyramide], for which the EC50 on μ-opioid receptor turned out to be 8460 nM; on human κ opioid receptor it was 7940 nM. In addition, the Emax on μ-opioid receptor came to 27 ± 1.53%; at human κ opioid receptor, 90.3 ± 1.67%.
As to `Oc1ccc2c(c1)[C@]13CCN(CC4CC4)[C@H](C2)[C@]1(O)C[C@@H](N1CCOCC1)[C@@H](O)C3` [Compound 39, (4bR,6S,7R,8aS,9R)-11-(cyclopropylmethyl)-7-morpholino-5,6,7,8,9,10-hexahydro-8aH-9,4b-(epiminoethano)phenanthrene-3,6,8a-triol], the EC50 on μ-opioid receptor and at human κ opioid receptor was over 20000 nM in each case. Further, the Emax at μ-opioid receptor is 2%; on human κ opioid receptor, 1%.
Turning to `CC(=O)N[C@H]1CC[C@]23CCN(CC4CC4)[C@H](Cc4ccc(O)cc42)[C@]3(O)C1` [Compound 47, N-((4bS,7S,8aS,9R)-11-(cyclopropylmethyl)-3,8a-dihydroxy-6,7,8,8a,9,10-hexahydro-5H-9,4b-(epiminoethano)phenanthren-7-yl)acetamide], the EC50 on μ-opioid receptor was 0.61 ± 0.17 nM; on human κ opioid receptor it was 0.14 ± 0.027 nM. Also, the Emax came to 44 ± 1.73% on μ-opioid receptor and 105 ± 1.76% on human κ opioid receptor.
